Measurements from article PMC12608155, “Discovery of Potential Antileishmanial Compounds Through Phenotypic Screening of an Alkaloid Library” (Molecules, 2025).
Read-outs that look alike come from different tables or passages of the source.

Tested on: L. donovani IRFP axenic amastigotes
Assay: Primary single-concentration screening on axenic amastigotes, growth inhibition at 72 h
Format: cell-based, Leishmania donovani
Settings: axenic amastigotes; for Growth Inhibition (%) at 72h, 1 µM_Exp1 / Growth Inhibition (%) at 72h, 1 µM_Exp2 / inhibition at 1 µM: 1 µM; for Growth Inhibition (%) at 72h, 10 µM_Exp1 / Growth Inhibition (%) at 72h, 10 µM_Exp2 / inhibition at 10 µM: 10 µM; for inhibition at 1 µM / inhibition at 10 µM: Leishmania donovani
[1] = experiment 1, 72 h, read-out: Growth Inhibition (%) at 72h, 1 µM_Exp1
[2] = experiment 2, 72 h, read-out: Growth Inhibition (%) at 72h, 1 µM_Exp2
[3] = experiment 1, 72 h, read-out: Growth Inhibition (%) at 72h, 10 µM_Exp1
[4] = experiment 2, 72 h, read-out: Growth Inhibition (%) at 72h, 10 µM_Exp2

| Compound | Growth Inhibition (%) at 72h, 1 µM_Exp1 (experiment 1, 72 h) [%] | Growth Inhibition (%) at 72h, 1 µM_Exp2 (experiment 2, 72 h) [%] | Growth Inhibition (%) at 72h, 10 µM_Exp1 (experiment 1, 72 h) [%] | Growth Inhibition (%) at 72h, 10 µM_Exp2 (experiment 2, 72 h) [%] | inhibition at 1 µM [1] [%] | inhibition at 1 µM [2] [%] | inhibition at 10 µM [3] [%] | inhibition at 10 µM [4] [%] |
| --- | --- | --- | --- | --- | --- | --- | --- | --- |
| COc1ccc2cc3[n+](cc2c1OC)CCc1cc(O)c(O)cc1-3.[Cl-] [Demethyleneberberine (chloride)] | -4.24 | 8.25 | 43.2 | 71.18 |  |  |  |  |
| COc1cc2c(cc1O)C1Cc3ccc(OC)c(O)c3C[N+]1(C)CC2.[Cl-] (centres unmarked) [Cyclanoline (chloride)] | -48.98 | 13.86 | 77.56 | 17.25 |  |  |  |  |
| Cl.Cl.O=C(C[C@H]1NCCC[C@@H]1O)Cn1cnc2ccccc2c1=O [Febrifugine (dihydrochloride)] | 74.39 | 25.76 | 97.63 | 97.12 |  |  |  |  |
| CC(=O)C1=C(O)[C@@H]2[C@H]3c4c[nH]c5cccc(c45)C[C@H]3C(C)(C)N2C1=O [Cyclopiazonic acid] |  |  |  |  | 20.8 | 19.9 | 100 | 100 |
| [Cl-].c1c2c(cc3c1OCO3)-c1cc3ccc4c(c3c[n+]1CC2)OCO4 [Coptisine (chloride)] | 29.53 | 16.08 | 84.96 | 96.73 |  |  |  |  |
| O=C(C[C@H]1NCCC[C@@H]1O)Cn1cnc2ccccc2c1=O [Febrifugine] |  |  |  |  | 15.4 | -25.3 | 99.8 | 98.2 |
| O=S(=O)([O-])O.c1c2c(cc3c1OCO3)-c1cc3ccc4c(c3c[n+]1CC2)OCO4 [Coptisine (Sulfate)] | -9.12 | -56.10 | 71.50 | 83.90 |  |  |  |  |
| Evocarpine | -18.62 | -35.10 | 100.35 | 98.71 |  |  |  |  |
| Cc1ncc(CO)c(CO)c1O.Cl [Pyridoxine (hydrochloride)] | 6.77 | -86.02 | 79.17 | 65.78 |  |  |  |  |
| O=C(O)Cc1c[nH]c2ccccc12 [3-Indoleacetic acid] |  |  |  |  | -25.4 | -9.83 | 102 | 101 |
| Br.O=C(CC1NCCCC1O)Cn1cnc2cc(Br)c(Cl)cc2c1=O (centres unmarked) [Halofuginone (hydrobromide)] | 99.34 | 83.65 | 100.16 | 98.51 |  |  |  |  |
| COc1ccc2cc3[n+](cc2c1OC)CCc1cc2c(cc1-3)OCO2.O.[Cl-] [Berberine (chloride hydrate)] | 29.91 | 24.54 | 98.55 | 99.87 |  |  |  |  |
| CC(C)(O)[C@H]1O[C@H]2CC[C@@]3(C)[C@@](O)(CC[C@H]4Cc5c([nH]c6ccccc56)[C@@]43C)C2=CC1=O [Paxilline] |  |  |  |  | 6.12 | 19.6 | 98.6 | 99.1 |
| COc1c2ccoc2nc2c(O)cccc12 [Robustine] |  |  |  |  | 48.3 | 1.86 | 90.6 | 33.3 |
| CC[C@@]1(O)C(=O)OCc2c1cc1n(c2=O)Cc2cc3cc(OC)ccc3nc2-1 [10-Methoxycamptothecin] | 73.40 | 85.61 | 97.42 | 93.76 |  |  |  |  |
| CC[C@@]1(O)C(=O)OCc2c1cc1n(c2=O)Cc2cc3c(N)cccc3nc2-1 [9-Aminocamptothecin] |  |  |  |  | -3.99 | 62 | 74.7 | 89.1 |
| CCCCCCCCCCCCCc1cc(=O)c2ccccc2n1C [Dihydroevocarpine] | -21.58 | 19.18 | 97.61 | 83.00 |  |  |  |  |
| CN1[C@@H](CC(=O)c2ccccc2)CCC[C@H]1CC(=O)c1ccccc1 [Lobelanine] | -73.70 | 10.47 | 75.56 | 20.66 |  |  |  |  |
| COc1cc2c(cc1OC)-c1c(C)c3ccc(OC)c(OC)c3c[n+]1CC2.[Cl-] [Dehydrocorydaline (chloride)] | 13.00 | 31.86 | 95.47 | 88.17 |  |  |  |  |

| Compound | Growth Inhibition (%) at 72h, 1 µM_Exp1 (experiment 1, 72 h) [%] | Growth Inhibition (%) at 72h, 1 µM_Exp2 (experiment 2, 72 h) [%] | Growth Inhibition (%) at 72h, 10 µM_Exp1 (experiment 1, 72 h) [%] | Growth Inhibition (%) at 72h, 10 µM_Exp2 (experiment 2, 72 h) [%] | inhibition at 1 µM [1] [%] | inhibition at 1 µM [2] [%] | inhibition at 10 µM [3] [%] | inhibition at 10 µM [4] [%] |
| --- | --- | --- | --- | --- | --- | --- | --- | --- |
| CCCCC/C=C\C/C=C\CCCCCCCC(=O)NCc1ccccc1 [N-Benzyllinoleamide] | 23.06 | -24.6 | 99.77 | 99.86 |  |  |  |  |
| O=C1c2ccccc2-n2c1nc1ccccc1c2=O [Tryptanthrin] |  |  |  |  | 13.1 | 23.4 | 84.1 | 75 |
| COc1cc2c(cc1OC)[C@H]1[C@@H](C)c3ccc(OC)c(OC)c3CN1CC2 [Corydaline] | -15.75 | 2.30 | 79.13 | 87.39 |  |  |  |  |
| CCCCCCCCC(=O)NCc1ccc(O)c(OC)c1 [Nonivamide] |  |  |  |  | 10.9 | -30.7 | 101 | 93.3 |
| O=C(O)CCCc1c[nH]c2ccccc12 [Indole-3-butyric acid] |  |  |  |  | -6.27 | 14.8 | 70.2 | 84 |
| CC(C)=CC[C@H](O)C1=CC(=O)c2c(O)ccc(O)c2C1=O [(-)-Alkannin] | 100.44 | 100.08 | 99.90 | 99.93 |  |  |  |  |
| O=C(O)CNCC(=O)O [Iminodiacetic acid] |  |  |  |  | -16.6 | -73 | -16.9 | 79.9 |
| CCc1c2c(nc3ccccc13)-c1cc3c(c(=O)n1C2)COC(=O)[C@]3(O)CC [7-Ethylcamptothecin] | 70.44 | 77.88 | 96.57 | 91.90 |  |  |  |  |
| COc1ccc2cc3[n+](cc2c1OC)CCc1cc2c(cc1-3)OCO2.O=S(=O)([O-])O [Berberine (sulfate)] | 19.57 | -24.39 | 70.74 | 94.59 |  |  |  |  |
| CC[C@@]1(O)C(=O)OCc2c1cc1n(c2=O)Cc2cc3c([N+](=O)[O-])cccc3nc2-1 [Rubitecan] |  |  |  |  | 69.8 | 36.9 | 94.4 | 89.4 |
| O=C1N[C@@H]2C(=C[C@H](O)[C@@H](O)[C@H]2O)c2cc3c(c(O)c21)OCO3 [Narciclasine] | -12.26 | -86.55 | 84.56 | 93.45 |  |  |  |  |
| O=C(/C=C/C=C/c1ccc2c(c1)OCO2)N1CCCCC1 [Piperine] |  |  |  |  | 38.3 | 17.5 | -7.31 | 75.2 |
| O=C1C=CC(=O)N1 [Maleimide] |  |  |  |  | 101 | 101 | 101 | 101 |
| COc1ccc2cc3[n+](cc2c1OC)CCc1cc2c(cc1-3)OCO2.[Cl-] [Berberine (chloride)] | 16.68 | 6.56 | 99.29 | 97.39 |  |  |  |  |
| O=C(O)c1cccc2nc3ccccc3nc12 [Phenazine-1-carboxylic acid] |  |  |  |  | -12.2 | -87 | 90.8 | 87.8 |
| COc1cc(CNC(=O)CCCCCCC(C)C)ccc1O [Dihydrocapsaicin] |  |  |  |  | -4.08 | 35.3 | 92 | 71.1 |
| COC(=O)C[C@](O)(CCC(C)(C)O)C(=O)O[C@@H]1C(OC)=C[C@]23CCCN2CCc2cc4c(cc2[C@H]13)OCO4 [Harringtonine] |  |  |  |  | -25.3 | 3.29 | 92.5 | 92.2 |
| COc1cc2c(cc1OC)-c1c(C)c3ccc(OC)c(OC)c3c[n+]1CC2.O=[N+]([O-])[O-] [Dehydrocorydaline (nitrate)] | 27.42 | -14.19 | 82.98 | 66.56 |  |  |  |  |
| CCc1ccc(O)c2cc3c(nc12)-c1cc2c(c(=O)n1C3)COC(=O)[C@]2(O)CC [12-Ethyl-9-hydroxycamptothecin] | 22.17 | 56.54 | 70.30 | 62.49 |  |  |  |  |
